Measured values: patent US10072055B2, “Anti-inflammatory pharmaceutical products” (Resother Pharma APS, priority 2011, dated 2018)
“Also recorded” adds a separate entry of the source. Ends that are not written are not given here.

Experiments:
reperfusion injury = test: Myocardial ischemia/reperfusion injury, infarct size (LADCA occlusion); format: in vivo, C57/B16 mice; conditions: i.v. bolus at beginning of reperfusion; 25 min ischemia, 120 min reperfusion
Description: Infarct size in C57/B16 mice (˜30 g body weight) following 25 min ischemia (occlusion of the left anterior descending coronary artery; [LADCA]) and 120 min reperfusion. Vehicle or UGP022 (SEQ ID NO:5) were administered i.v. (over 5 sec bolus) at beginning of reperfusion. Area at Risk was measured following re-occlusion and injection of Evans blue dye. Infarct size was determined following NBT staining of the Area at Risk. Results are mean±SEM of 4 mice per group; **P<0.01
Infarct size in C57/B16 mice (˜30 g body weight) following 25 min ischemia (LADCA occlusion) and 120 min reperfusion. Vehicle, UGP025 (SEQ ID NO:7) (5 μg) or UGP026 (SEQ ID NO:8) (5 μg) were administered i.v. (over 5 sec bolus) at beginning of reperfusion. Area at Risk was measured following re-occlusion and injection of Evans blue dye. Infarct size was determined following NBT staining of the Area at Risk. Results are mean±SEM of 4 mice per group; **P<0.01

HNE = target: T1, HNE (Homo sapiens, UniProt P08246); test: In vitro degradation/digest in the presence of HNE; format: in vitro ADME
T1 sequence (P08246 30-267): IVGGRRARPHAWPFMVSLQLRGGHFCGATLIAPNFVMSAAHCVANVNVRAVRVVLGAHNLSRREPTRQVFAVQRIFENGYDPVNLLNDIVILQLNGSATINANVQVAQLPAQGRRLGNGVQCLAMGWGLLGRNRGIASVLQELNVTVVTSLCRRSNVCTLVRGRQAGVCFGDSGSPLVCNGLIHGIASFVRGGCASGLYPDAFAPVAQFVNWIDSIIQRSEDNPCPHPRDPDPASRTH
Description: FIG. 9 is a logarithmic plot of the degradation over time of three polypeptides of the present disclosure, UGP022 (SEQ ID NO: 5), UGP025 (SEQ ID NO: 7) and UGP026 (SEQ ID NO: 8) in the presence of HNE, a protease implicated in the in vivo cleavage of Annexin 1.
In an attempt to improve the potency and increase the half-life of the UGP022 peptide of the present disclosure (SEQ ID NO: 5), a series of in vitro PR3 and FINE digests were conducted. […] This cleavage site is not believed to have been identified in the literature.
Degradation tests of three polypeptides of the present disclosure, UGP022 (SEQ ID NO:5), UGP025 (SEQ ID NO:7) and UGP026 (SEQ ID NO:8) in the presence of PR3, a protease implicated in the in vivo cleavage of Annexin 1, indicated better stability for polypeptides with Leucine substitution at position 24 relative to a polypeptide lacking that feature. Position 24 corresponds to position 25 of Annexin 1 because all tested polypeptides lack the methionine at position 1 of natural Annexin. A 47-residue polypeptide outperformed an otherwise identical 49-residue polypeptide. Similar results were obtained in degradation tests in the presence of FINE.
FIG. 9 is a logarithmic plot of the degradation over time of three polypeptides of the present disclosure, UGP022 (SEQ ID NO:5), UGP025 (SEQ ID NO:7) and UGP026 (SEQ ID NO:8) in the presence of […], a protease implicated in the in vivo cleavage of Annexin 1. […] Also, a 47-residue polypeptide amidated at its C-terminus outperformed an otherwise identical 49-residue polypeptide amidated at its C-terminus.

[1] = system: leukocyte recruitment into the inflamed airpouch; test: Mouse IL-1β air-pouch inflammation model (leukocyte migration); format: in vivo; conditions: mouse air-pouch
Description: FIG. 3A and FIG. 3B are a series of bar charts comparing the anti-inflammatory effects of three polypeptides (Pep57 (SEQ ID NO:12); Pep59 (SEQ ID NO:13) and Pep84 (SEQ ID NO:14)) of the present disclosure versus a vehicle-only control.
FIG. 3A and FIG. 3B are a series of bar charts comparing the anti-inflammatory effects of three polypeptides (Pep57 (SEQ ID NO: 12); Pep59 (SEQ ID NO: 13) and Pep84 (SEQ ID NO: 14)) of the present disclosure versus a vehicle-only control. Mice received 200 μl i.v. of saline+DMSO or a dose of 50 μg per animal of one of the three Ac2-26 derived peptides, immediately before the local injection of mouse IL-1β into 6-day-old airpouches. The extent of cell migration was determined 4 h later, following airpouch washing and staining of migrated cells with Gr1 marker. […] Data are mean±SEM of 5 mice per group. *P<0.05 vs. vehicle group (one way ANOVA).

FPR1 = target: T2, FPR1 (Homo sapiens, UniProt P21462); test: FPR1 activation (ERK phosphorylation and intracellular calcium fluxes); format: cell-based
T2 sequence (P21462 1-350): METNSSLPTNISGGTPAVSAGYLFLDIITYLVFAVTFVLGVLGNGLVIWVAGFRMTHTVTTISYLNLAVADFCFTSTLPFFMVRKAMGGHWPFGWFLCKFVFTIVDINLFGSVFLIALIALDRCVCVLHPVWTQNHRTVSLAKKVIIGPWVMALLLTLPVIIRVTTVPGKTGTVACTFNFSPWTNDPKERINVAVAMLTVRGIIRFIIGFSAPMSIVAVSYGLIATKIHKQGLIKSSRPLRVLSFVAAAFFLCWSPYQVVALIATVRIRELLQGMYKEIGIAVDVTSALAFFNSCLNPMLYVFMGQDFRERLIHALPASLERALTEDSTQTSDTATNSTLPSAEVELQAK

FPR2 = target: T3, FPR2 (Homo sapiens, UniProt P25090); test: FPR2 activation (ERK phosphorylation and intracellular calcium fluxes); format: cell-based
T3 sequence (P25090 1-351): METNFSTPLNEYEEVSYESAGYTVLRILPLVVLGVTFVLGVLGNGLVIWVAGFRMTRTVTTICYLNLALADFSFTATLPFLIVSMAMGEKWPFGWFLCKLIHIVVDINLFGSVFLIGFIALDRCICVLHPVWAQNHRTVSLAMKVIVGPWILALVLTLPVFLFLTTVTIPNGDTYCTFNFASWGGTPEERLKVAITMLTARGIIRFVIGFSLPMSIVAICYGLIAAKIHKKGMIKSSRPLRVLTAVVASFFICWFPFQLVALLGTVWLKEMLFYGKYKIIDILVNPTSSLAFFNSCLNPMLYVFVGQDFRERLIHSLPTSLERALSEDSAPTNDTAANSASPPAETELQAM

[2] = system: inflamed microcirculation; test: Inflamed microcirculation in vivo; set-up: species or system murine

| Substance | tissue protection / reduction of reperfusion injury (infarct size) (reperfusion injury) | stability / resistance to HNE degradation (HNE) | inhibition of leukocyte infiltration/recruitment in air-pouch model [1] | cleavage sites by HNE (HNE; in vitro digest) | activation of FPR1 (FPR1) | activation of FPR2 (FPR2) | anti-inflammatory properties in the inflamed microcirculation [2] |
| --- | --- | --- | --- | --- | --- | --- | --- |
| AMVSEFLKQAWFIENEEQEYVQTLKSSKGGPGSAVSPYPTFNPSSDV-NH2 [UGP025, Leu25-ANXA1(2-48)-NH2] | affording cardioprotection; also recorded: reduce the risk of reperfusion injury relative to a vehicle-only control | more resistant to PR3 and FINE than the UGP022 peptide | – | – | – | – | – |
| AMVSEFLKQAWFIENEEQEYVQTVKSSKGGPGSAVSPYPTFNPSSDVAA-NH2 [UGP022, ANXA1(2-50)-NH2] | potent tissue protective properties; also recorded: reduce the risk of reperfusion injury relative to a vehicle-only control | – | more potent than either the UGP021 peptide; also recorded: the more potent at inhibiting leukocyte recruitment into the inflamed airpouch | Ala 10 (Ala11 relative to Annexin 1) and Val 21 (Val22 relative to Annexin 1); also recorded: Val 35 (Val36 relative to Annexin 1) was only cleaved by FINE; also recorded: Val 24 (Val25 relative to Annexin 1) | could activate both FPR1 and FPR2 | could activate both FPR1 and FPR2 | potency equivalent to human recombinant Annexin A1 |
| AMVSEFLKQAWFIENEEQEYVQTLKSSKGGPGSAVSPYPTFNPSSDVAA-NH2 [UGP026, Leu25-ANXA1(2-50)-NH2] | affording cardioprotection; also recorded: reduce the risk of reperfusion injury relative to a vehicle-only control | more resistant to PR3 and FINE than the UGP022 peptide | – | – | – | – | – |
